In patent US20200131669A1, “CYCLIC PEPTIDE COMPOUND HAVING HIGH MEMBRANE PERMEABILITY, AND LIBRARY CONTAINING SAME” (Chugai Seiyaku Kabushiki Kaisha, priority 2017, published 2020):
Starred links: 1 amine or outer side, 2 acyl side, 3 side chain; linkers in the order of their positions; H or OH if unused. Positions of bridges follow the written chain, without caps; N, C: chain ends. Non-standard residues stand in square brackets, D forms with d. Residues, ends and D or L forms follow the SMILES beside them. ξ: configuration not given here. *: point of attachment. Phe(4-CHF2) = N[C@@H](Cc1ccc(C(F)F)cc1)C(=O)O; NMePhe(3-Cl) = CN[C@@H](Cc1cccc(Cl)c1)C(=O)O; X5 = O=C(C(CCc1noc(=O)[nH]1)N[*:1])[*:2]; Ethyl(2-morpholino) = C1CN(CC*)CCO1; NMeF = CN[C@@H](Cc1ccccc1)C(=O)O; NMeGABA = CN(CCCC(=O)[*:2])[*:1]; NMeI = CC[C@H](C)[C@H](NC)C(=O)O; ξThr(3R) = C[C@@H](O)C(N)C(=O)O; NMeL = CN[C@@H](CC(C)C)C(=O)O; Propyl(2R-OH) = C[C@@H](O)C*; NMeV = CN[C@H](C(=O)O)C(C)C; NMeAbu = CC[C@H](NC)C(=O)O; NMeA = CN[C@@H](C)C(=O)O; Piperidide = C1CCN(*)CC1; NBuGly = CCCCNCC(=O)O; ξS = NC(CO)C(=O)O; Sar = CNCC(=O)O; tBu = CC(C)(C)*; CHF2 = FC(F)*

Assay: Caco-2 membrane permeability, improved method as used in the following Examples (96-well, 20 to 24 h preincubation)
Type: in vitro ADME
Conditions: human, Caco-2, Caco-2
Summary of the method: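 Caco-2 monolayers were grown three weeks and preincubated 20–24 h at 37 °C with compound in DMEM+FaSSIF (1% DMSO) apically. The assay then used compound in FaSSIF/HBSS (1% DMSO, pH 6.0) apically and HBSS with 4% BSA (pH 7.4) basally. Basal samples were taken at 180 min for LC/MS, and Papp (cm/sec) was calculated.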

Compound | Papp A→B at 180 min [×10⁻⁶ cm/s]
CC(=O)NCCCC[C@@H]1NC(=O)[C@H](CC(C)C)N(C)C(=O)[C@H](CC(C)C)NC(=O)[C@H](Cc2ccccc2)N(C)C(=O)[C@@H](CC(C)C)NC(=O)C[C@@H](C(=O)N2CCCCC2)NC(=O)[C@H](C(C)C)N(C)C(=O)[C@H](Cc2ccccc2)N(C)C(=O)[C@H](COC(C)(C)C)NC(=O)[C@H](CC(C)C)N(C)C(=O)CN(C)C1=O [pd471] ([dL][NMeF]L[NMeL]K(Ac)[Sar][NMeL]S(tBu)[NMeF][NMeV]D-Piperidide; lactam N-11) | 2.1
CC(C)C[C@@H]1NC(=O)[C@H](C)N(C)C(=O)C[C@@H](C(=O)N2CCCCC2)NC(=O)[C@H](CC(C)C)N(C)C(=O)CN(C)C(=O)[C@H]([C@@H](C)O)NC(=O)[C@H](C(C)C)N(C)C(=O)[C@H](CC(C)C)N(C)C(=O)[C@H](Cc2ccc(C(F)F)cc2)NC(=O)[C@H](CC(C)C)N(C)C(=O)[C@H](CC(C)C)N(C)C1=O [pd474] ([NMeA]L[NMeL][NMeL][Phe(4-CHF2)][NMeL][NMeV]T[Sar][NMeL]D-Piperidide; lactam N-11) | 4.5
CC[C@H](C)[C@@H]1NC(=O)[C@H](CC(C)C)N(C)C(=O)CN(C)C(=O)C[C@@H](C(=O)N2CCCCC2)NC(=O)[C@H](C(C)C)N(C)C(=O)[C@H](Cc2ccc(C(F)F)cc2)NC(=O)[C@H](CC(C)C)N(C)C(=O)[C@H](Cc2ccccc2)N(C)C(=O)CN(C)C(=O)[C@H]([C@@H](C)O)NC(=O)[C@H](CC(C)C)N(C)C1=O [pd475] ([Sar][NMeL]I[NMeL]T[Sar][NMeF][NMeL][Phe(4-CHF2)][NMeV]D-Piperidide; lactam N-11) | 4.2
CC(C)C[C@@H]1NC(=O)C[C@@H](C(=O)N2CCCCC2)NC(=O)[C@H](CC(C)C)N(C)C(=O)[C@H](CC(C)C)N(C)C(=O)[C@H](Cc2ccc(OC(F)F)cc2)NC(=O)[C@H](C)N(C)C(=O)CN(C)C(=O)[C@H]([C@@H](C)O)NC(=O)[C@H](CC(C)C)N(C)C(=O)[C@H](C(C)C)NC(=O)[C@H](Cc2ccccc2)N(C)C1=O [pd477] (L[NMeF]V[NMeL]T[Sar][NMeA]Y(CHF2)[NMeL][NMeL]D-Piperidide; lactam N-11) | 2.2
CC(C)C[C@H]1C(=O)N[C@@H](Cc2ccc(OC(F)F)cc2)C(=O)N(C)[C@@H](CC(C)C)C(=O)N(C)[C@@H](Cc2ccccc2)C(=O)N[C@@H](COC(C)(C)C)C(=O)N(C)[C@@H](CC(C)C)C(=O)NC([C@@H](C)O)C(=O)N(C)[C@@H](C)C(=O)N(C)[C@@H](CC(C)C)C(=O)N[C@@H](C(=O)N2CCCCC2)CC(=O)N(C)CCCC(=O)N1C (stereo partly drawn) [pd478] ([NMeGABA][NMeL]Y(CHF2)[NMeL][NMeF]S(tBu)[NMeL][ξThr(3R)][NMeA][NMeL][dD]-Piperidide; lactam N-11) | 1.3
CCCCN1CC(=O)N(C)[C@@H](C)C(=O)N[C@H](C(=O)N2CCCCC2)CC(=O)N(C)[C@@H](C)C(=O)N[C@@H](Cc2ccc(OC(F)F)cc2)C(=O)N(C)[C@@H](CC(C)C)C(=O)N(C)[C@@H](Cc2ccccc2)C(=O)N[C@@H](CC(C)C)C(=O)N(C)[C@@H](CC(C)C)C(=O)N(C)[C@@H]([C@@H](C)CC)C(=O)N[C@@H]([C@@H](C)O)C1=O [pd479] ([NMeA]Y(CHF2)[NMeL][NMeF]L[NMeL][NMeI]T[NBuGly][NMeA]D-Piperidide; lactam N-11) | 1
CC[C@H](C)[C@H]1C(=O)N[C@@H]([C@@H](C)O)C(=O)N(C)CC(=O)N(C)[C@@H](CC(C)C)C(=O)N[C@@H](C(=O)N2CCCCC2)CC(=O)N(C)[C@@H](C)C(=O)N[C@@H](CC(C)C)C(=O)N(C)[C@@H](CC(C)C)C(=O)N(C)[C@@H](CC(C)C)C(=O)N[C@@H](Cc2ccc(OC(F)F)cc2)C(=O)N(C)[C@@H](C)C(=O)N1C [pd480] ([NMeA]L[NMeL][NMeL]Y(CHF2)[NMeA][NMeI]T[Sar][NMeL][dD]-Piperidide; lactam N-11) | 5
CC[C@H](C)[C@@H]1NC(=O)[C@H](CC(C)C)N(C)C(=O)CN(C)C(=O)C[C@@H](C(=O)N2CCCCC2)NC(=O)[C@H](C(C)C)N(C)C(=O)[C@H](Cc2ccc(OC(F)F)cc2)NC(=O)[C@H](CC(C)C)N(C)C(=O)[C@H](Cc2ccccc2)N(C)C(=O)CN(C)C(=O)[C@H]([C@@H](C)O)NC(=O)[C@H](CC(C)C)N(C)C1=O [pd481] ([Sar][NMeL]I[NMeL]T[Sar][NMeF][NMeL]Y(CHF2)[NMeV]D-Piperidide; lactam N-11) | 3.8
CCCCN1CC(=O)N(C)[C@@H](CC(C)C)C(=O)N[C@H](C(=O)N2CCCCC2)CC(=O)N(C)[C@@H](CC)C(=O)NC(COCCN2CCOCC2)C(=O)N(C)[C@@H](CC(C)C)C(=O)N(C)[C@@H](CC)C(=O)N[C@@H](C(C)C)C(=O)N(C)[C@@H](Cc2ccccc2)C(=O)N(C)[C@@H](CC(C)C)C(=O)N[C@@H]([C@@H](C)O)C1=O (stereo partly drawn) [pd483] ([NMeAbu][ξS](Ethyl(2-morpholino))[NMeL][NMeAbu]V[NMeF][NMeL]T[NBuGly][NMeL]D-Piperidide; lactam N-11) | 1.9
CCCCN1CC(=O)N(C)[C@@H](Cc2ccccc2)C(=O)N(C)[C@@H](CC(C)C)C(=O)N[C@@H](C(C)C)C(=O)N(C)[C@@H](CC(C)C)C(=O)N[C@H](C(=O)N2CCCCC2)CC(=O)N(C)CC(=O)N(C)[C@@H](CC(C)C)C(=O)NC(COCCN2CCOCC2)C(=O)N(C)[C@@H](CC(C)C)C(=O)N[C@@H]([C@@H](C)O)C1=O (stereo partly drawn) [pd484] ([Sar][NMeL][ξS](Ethyl(2-morpholino))[NMeL]T[NBuGly][NMeF][NMeL]V[NMeL]D-Piperidide; lactam N-11) | 1.8
CC[C@H](C)[C@@H]1NC(=O)[C@H](CC(C)C)N(C)C(=O)CCCN(C)C(=O)C[C@@H](C(=O)N2CCCCC2)NC(=O)[C@H](CC(C)C)N(C)C(=O)[C@H](CC(C)C)N(C)C(=O)[C@H](COCCN2CCOCC2)NC(=O)[C@H](CC(C)C)N(C)C(=O)[C@H](COC(C)(C)C)NC(=O)[C@H](CC)N(C)C(=O)[C@H](Cc2ccccc2)N(C)C1=O [pd485] ([NMeGABA][NMeL]I[NMeF][NMeAbu]S(tBu)[NMeL]S(Ethyl(2-morpholino))[NMeL][NMeL]D-Piperidide; lactam N-11) | 1.2
CCCCN1CC(=O)N(C)[C@@H](Cc2ccccc2)C(=O)N(C)[C@@H](CC(C)C)C(=O)N[C@@H](COC(C)(C)C)C(=O)N(C)[C@@H](CC(C)C)C(=O)N[C@H](C(=O)N2CCCCC2)CC(=O)N(C)CC(=O)N(C)[C@@H](Cc2cccc(Cl)c2)C(=O)N[C@@H](COC[C@@H](C)O)C(=O)N(C)[C@@H](CC(C)C)C(=O)N[C@@H]([C@@H](C)O)C1=O [pd490] ([Sar][NMePhe(3-Cl)]S(Propyl(2R-OH))[NMeL]T[NBuGly][NMeF][NMeL]S(tBu)[NMeL]D-Piperidide; lactam N-11) | 1
CC(C)C[C@H]1C(=O)N[C@@H](C(C)C)C(=O)N(C)[C@@H](Cc2ccccc2)C(=O)N(C)[C@@H](Cc2ccccc2)C(=O)N[C@@H](COC(C)(C)C)C(=O)N(C)[C@@H](CC(C)C)C(=O)N[C@@H](COC[C@@H](C)O)C(=O)N(C)[C@@H](CC(C)C)C(=O)N(C)[C@@H](CC(C)C)C(=O)N[C@H](C(=O)N2CCCCC2)CC(=O)N(C)CCCC(=O)N1C [pd493] ([NMeGABA][NMeL]V[NMeF][NMeF]S(tBu)[NMeL]S(Propyl(2R-OH))[NMeL][NMeL]D-Piperidide; lactam N-11) | 1.3
CC[C@H](C)[C@H]1C(=O)N[C@@H](COC[C@@H](C)O)C(=O)N(C)CC(=O)N(C)[C@@H](CC(C)C)C(=O)N[C@H](C(=O)N2CCCCC2)CC(=O)N(C)[C@@H](C)C(=O)N[C@@H](CC(C)C)C(=O)N(C)[C@@H](CC(C)C)C(=O)N(C)[C@@H](Cc2ccccc2)C(=O)N[C@@H](CC(C)C)C(=O)N(C)[C@@H](Cc2ccccc2)C(=O)N1C [pd494] ([NMeA]L[NMeL][NMeF]L[NMeF][NMeI]S(Propyl(2R-OH))[Sar][NMeL]D-Piperidide; lactam N-11) | 5.2

Same assay, conditions: human; Papp, Caco-2 membrane permeability, improved method; read-out: Caco-2

Compound | Papp A→B at 180 min [×10⁻⁶ cm/s]
CC[C@H](C)[C@H]1C(=O)N[C@@H]([C@@H](C)O)C(=O)N(C)CC(=O)N(C)[C@@H](CC)C(=O)N[C@H](C(=O)N2CCCCC2)CC(=O)N(C)[C@@H](C)C(=O)N[C@@H](Cc2ccc(C(F)F)cc2)C(=O)N(C)[C@@H](CC(C)C)C(=O)N(C)[C@@H](Cc2ccccc2)C(=O)N[C@@H](CC(C)C)C(=O)N(C)[C@@H](CC(C)C)C(=O)N1C [pd473] ([NMeA][Phe(4-CHF2)][NMeL][NMeF]L[NMeL][NMeI]T[Sar][NMeAbu]D-Piperidide; lactam N-11) | 4.5
CCCCN1CC(=O)N(C)[C@@H](CC(C)C)C(=O)N[C@H](C(=O)N2CCCCC2)CC(=O)N(C)[C@@H](CC)C(=O)N[C@@H](CC(C)C)C(=O)N(C)[C@@H](CC(C)C)C(=O)N(C)[C@@H](Cc2ccccc2)C(=O)NC(CCc2noc(=O)[nH]2)C(=O)N(C)[C@@H](CC(C)C)C(=O)N(C)[C@@H](CC(C)C)C(=O)NC([C@@H](C)O)C1=O (stereo partly drawn) [pd487] ([NMeAbu]L[NMeL][NMeF][X5][NMeL][NMeL][ξThr(3R)][NBuGly][NMeL]D-Piperidide; lactam N-11) | 2.2
CCCCN1CC(=O)N(C)[C@@H](Cc2ccccc2)C(=O)N(C)[C@@H](CC(C)C)C(=O)N[C@@H](CC(C)C)C(=O)N(C)[C@@H](CC(C)C)C(=O)N[C@H](C(=O)N2CCCCC2)CC(=O)N(C)CC(=O)N(C)[C@@H](CC(C)C)C(=O)N[C@@H](C(C)C)C(=O)N(C)[C@@H](CC(C)C)C(=O)NC(CCc2noc(=O)[nH]2)C1=O (stereo partly drawn) [pd488] ([Sar][NMeL]V[NMeL][X5][NBuGly][NMeF][NMeL]L[NMeL]D-Piperidide; lactam N-11) | 1.6
CC(C)C[C@H]1C(=O)N[C@@H](COC(C)(C)C)C(=O)N(C)[C@@H](Cc2ccccc2)C(=O)N(C)[C@@H](CC(C)C)C(=O)N[C@H](C(=O)N2CCCCC2)CC(=O)N[C@@H](C(C)C)C(=O)N(C)[C@@H](Cc2ccccc2)C(=O)N[C@@H](COC[C@@H](C)O)C(=O)N(C)[C@@H](CC(C)C)C(=O)N[C@@H](C(C)C)C(=O)N(C)CC(=O)N1C [pd492] (V[NMeF]S(Propyl(2R-OH))[NMeL]V[Sar][NMeL]S(tBu)[NMeF][NMeL]D-Piperidide; lactam N-11) | 2.5
